Results published in paper PMC6028453, “BrlR from Pseudomonas aeruginosa is a receptor for both cyclic di-GMP and pyocyanin” (Nature Communications, 2018).

Columns and labels:
BrlR mutant Y270A = target: T1, BrlR mutant Y270A (Pseudomonas aeruginosa, UniProt Q9HUT5, Y270A); assay: FP binding assay, BrlR Y270A
T1 construct: His6-SUMO (N, cleaved yes); made in house; host or cells: E. coli BL21 DE3
Method: (§1) F-c-di-GMP and F-c-di-AMP both contain a fluorophore at one of the 2′-ribose hydroxyls of c-di-GMP and c-di-AMP, respectively (Fig. 2f). To measure the binding of c-di-GMP and c-di-AMP to BrlR variants, 1 nM F-c-di-GMP or F-c-di-AMP was incubated with increasing amounts of indicated BrlR WT, BrlR mutation, or BrlR-C in reaction buffer (25 mM HEPES, 100 mM NaCl, pH 7.5) at 25 °C for 20 min. 1 nM fluorescein was incubated with BrlR WT in the same reaction buffer at 25 °C. FP measurements were conducted on a Synergy 4 Microplate Reader (BioTek) at 25 °C. All experiments were performed in triplicate. The curves were fitted to deduce binding affinities by GraphPad Prism 5.
(§2) BrlR–c-di-GMPs interactions in two separate c-di-GMP binding sites
(§3) In the first binding site, c-di-GMP is half accommodated by the antiparallel β-sheet and two residues (M1 and D35). In detail, the backbone amide protons of the first M1 residue form a hydrogen bond (H-bond) with the phosphate oxygen atom of c-di-GMP, and the side chain of R31 forms two H-bonds with the Gua1 base. The residue D35 also forms an H-bond with the Gua1 base. The aromatic ring of Y40 interacts with the Gua1 base through a hydrophobic π-π interaction. In addition, the hydroxyl group of the Y270 side chain from another subunit interacts with the phosphate 2 of c-di-GMP via an H-bond (Fig. 2d). […]

BrlR mutant R86A = target: T2, BrlR mutant R86A (Pseudomonas aeruginosa, UniProt Q9HUT5, R86A); assay: FP binding assay, BrlR R86A
T2 construct: His6-SUMO (N, cleaved yes); made in house; host or cells: E. coli BL21 DE3
T2 sequence (Q9HUT5 whole entry R86A): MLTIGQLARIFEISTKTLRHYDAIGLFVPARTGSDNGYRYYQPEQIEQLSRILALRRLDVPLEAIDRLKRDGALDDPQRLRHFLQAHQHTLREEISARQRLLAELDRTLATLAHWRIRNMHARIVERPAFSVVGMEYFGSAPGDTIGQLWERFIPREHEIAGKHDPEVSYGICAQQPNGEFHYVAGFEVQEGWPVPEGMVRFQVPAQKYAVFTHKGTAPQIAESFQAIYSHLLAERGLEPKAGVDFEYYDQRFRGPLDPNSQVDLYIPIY
Method: as §1, §2, §3

BrlR mutant R67A = target: T3, BrlR mutant R67A (Pseudomonas aeruginosa, UniProt Q9HUT5, R67A); assay: FP binding assay, BrlR R67A
T3 construct: His6-SUMO (N, cleaved yes); made in house; host or cells: E. coli BL21 DE3
T3 sequence (Q9HUT5 whole entry R67A): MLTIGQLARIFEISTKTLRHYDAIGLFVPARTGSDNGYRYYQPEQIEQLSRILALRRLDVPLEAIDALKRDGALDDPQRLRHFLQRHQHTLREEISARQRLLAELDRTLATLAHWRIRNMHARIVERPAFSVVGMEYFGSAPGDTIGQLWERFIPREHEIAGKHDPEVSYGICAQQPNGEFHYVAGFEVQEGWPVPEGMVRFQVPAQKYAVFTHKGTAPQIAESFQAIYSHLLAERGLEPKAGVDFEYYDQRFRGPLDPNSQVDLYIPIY
Method: as §1, §2, §3

BrlR-C = target: T4, BrlR-C (Pseudomonas aeruginosa, UniProt Q9HUT5); assay: FP competition experiment, BrlR-C; assay type: binding; conditions: 550 μM BrlR-C, 1 nM F-c-di-GMP
T4 construct: His6 (cleaved yes); made in house; host or cells: E. coli (same protocol as BrlR, induction at 18 °C)
T4 sequence (Q9HUT5 120-270): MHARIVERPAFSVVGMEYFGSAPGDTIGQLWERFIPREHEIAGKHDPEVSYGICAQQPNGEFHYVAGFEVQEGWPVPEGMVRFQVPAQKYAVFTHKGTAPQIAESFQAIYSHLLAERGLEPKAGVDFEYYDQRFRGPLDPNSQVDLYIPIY
Method: Supplementary Figure 11: FP analyses of F-c-di-GMP binding to BrlR-C. (a) Isotherms of BrlR-C binding to F-c-di-GMP. The binding experiment was carried out at 25 °C in a buffer containing 150 mM NaCl, 25 mM Tris·HCl (pH 7.5), and 1 nM F-c-di-GMP. Increasing concentrations of BrlR-C were titrated into the reaction mixture to obtain the binding isotherms. (b) Fluorescence polarization competition experiment of BrlR-C. As a control, 550 μM BrlR-C was added to the reaction tube containing 1 nM F-c-di-GMP, and different competitors were respectively added in the solution and the values of millipolarization were recorded.
(1 picture or pasted object on this page, not shown here)

[1] = test system: brlR promoter activity (C2E mut1); assay: β-galactosidase assay, C2E mut1; assay type: cell-based, Pseudomonas aeruginosa
Method: (§4) We also performed β-galactosidase activity assays using a PbrlR-brlR-lacZ reporter construct to investigate the transcriptional function of BrlR mutants in vivo. […] To confirm the effect of c-di-GMP in P. aeruginosa, we carried out real-time quantitative PCR analyses. Following a previous report, we introduced the diguanylate cyclase PA4843 into a WT P. aeruginosa strain carrying either pHERD20T-empty or pHERD20T-PA4843. The transcription level of brlR was analyzed using the brlR 5 F and brlR 3 R primers (Supplementary Table 1). The transcriptional level of brlR in pHERD20T-PA4843 strain is 4.5 ± 1.3-fold higher than that in the pHERD20T-empty strain (Fig. 4h).
(§5) β-galactosidase activity was assayed with P. aeruginosa PA01 ΔbrlR strain carrying plasmid pME6522-borne transcriptional lacZ fusions. P. aeruginosa carrying the empty vector was used as the […]. The reporter plasmids are derivatives of the pME6522 plasmid in which multiple cloning sites were inserted before the LacZ with the promoter and coding regions of brlR with diverse mutations. These reporter plasmids were transformed into the reporter strain. Overnight cultures were diluted 20-fold with LB medium supplemented with appropriate antibiotics. […]

BrlR mutant R31A = target: T5, BrlR mutant R31A (Pseudomonas aeruginosa, UniProt Q9HUT5, R31A); assay: FP binding assay, BrlR R31A
T5 construct: His6-SUMO (N, cleaved yes); made in house; host or cells: E. coli BL21 DE3
T5 sequence (Q9HUT5 whole entry R31A): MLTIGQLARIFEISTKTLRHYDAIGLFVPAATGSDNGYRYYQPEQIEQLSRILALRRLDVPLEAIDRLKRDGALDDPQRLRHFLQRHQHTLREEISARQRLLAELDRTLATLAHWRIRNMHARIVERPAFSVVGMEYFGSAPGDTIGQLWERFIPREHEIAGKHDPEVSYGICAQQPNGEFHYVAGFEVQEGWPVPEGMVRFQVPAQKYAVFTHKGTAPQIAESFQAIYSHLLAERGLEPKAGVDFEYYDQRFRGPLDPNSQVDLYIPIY
Method: as §1, §2, §3

[2] = test system: brlR promoter activity (wild-type BrlR); assay: β-galactosidase assay, PbrlR-brlR-lacZ reporter, wild-type BrlR; assay type: cell-based, Pseudomonas aeruginosa; conditions: ΔbrlR strain, pHERD20T-PA4843 vs pHERD20T
Method: as §4, §5

T1 sequence (Q9HUT5 whole entry Y270A): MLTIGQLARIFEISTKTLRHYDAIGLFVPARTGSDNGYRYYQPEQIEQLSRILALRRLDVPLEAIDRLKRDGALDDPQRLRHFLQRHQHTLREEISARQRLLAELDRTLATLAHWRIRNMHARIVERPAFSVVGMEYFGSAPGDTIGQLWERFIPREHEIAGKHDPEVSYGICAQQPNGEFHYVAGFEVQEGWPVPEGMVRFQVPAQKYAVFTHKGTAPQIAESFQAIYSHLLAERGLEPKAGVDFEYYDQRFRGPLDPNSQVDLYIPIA

SMILES: Nc1nc2c(ncn2[C@@H]2O[C@@H]3COP(=O)(O)O[C@H]4[C@@H](O)[C@H](n5cnc6c(=O)[nH]c(N)nc65)O[C@@H]4COP(=O)(O)O[C@H]3[C@H]2O)c(=O)[nH]1 [c-di-GMP, cyclic diguanylate monophosphate]
- Kd (BrlR mutant Y270A): 40.8 ± 3.8 µM
- KD value (in words) (BrlR mutant R86A): like that of C2E mut2
- Kd (BrlR mutant R67A): 16.4 ± 1 µM
- competition with F-c-di-GMP binding to BrlR-C (BrlR-C): not
- increase at high vs low c-di-GMP concentration (β-galactosidase activity) [1]: 2.0 fold
- Kd (BrlR mutant R31A): 42.7 ± 5.4 µM
- increase at high vs low c-di-GMP concentration (β-galactosidase activity) [2]: 3.3 fold
